From paper PMC9493392, “N-glycosylation modulates enzymatic activity of Trypanosoma congolense trans-sialidase” (The Journal of Biological Chemistry, 2022)

Tests used:
H-TconTS1 = test system: T1, H-TconTS1; assay: HPAEC-PAD of […]'-sialyllactose formed, […] min, Michaelis-Menten fit; type: biochemical, Trypanosoma congolense; conditions: two biological replicates, purified differently after EndoHf; sialic acid acceptor; donor fetuin (600 μM bound Neu5Ac); 10 mM potassium phosphate pH 7.4, 37 °C; EndoHf-treated hypoglycosylated enzyme
T1 construct: same polypeptide as P1 (SNAP and Strep tag kept, CHO Lec1 cells), but N-glycans partly removed with EndoHf (16 h), leaving single GlcNAc residues; hypoglycosylated

TconTS1 = test system: T2, TconTS1; assay: as above; type: biochemical, Trypanosoma congolense; conditions: two biological replicates; sialic acid acceptor; donor fetuin (600 μM bound Neu5Ac); 10 mM potassium phosphate pH 7.4, 37 °C; N-glycosylated enzyme
T2 construct: catalytic plus lectin-like domain; C3 protease site, C-terminal SNAP and Strep tag kept; secreted by CHO Lec1 cells; high-mannose N-glycans; mock-incubated 16 h at 37 °C

OC[C@H]1O[C@@H](O[C@H]2[C@H](O)[C@@H](O)C(O)O[C@@H]2CO)[C@H](O)[C@@H](O)[C@H]1O (some centres unmarked) [lactose]
KM (apparent) (H-TconTS1): 9.0 and 3.2 mM | KM (apparent) (TconTS1): 1.7 and 2.0 mM
